These results are taken from patent publication US20080026054A1, “Novel anelgesic combination” (NECTID INC., priority 2007, published 2008).

Structures can show the parent of a compound that is named as a salt.

In the assay the test system is patients suffering from Chronic non-cancer pain (CNCP). Kind of assay: Human clinical trial, pain scored by visual analogue scale (VAS). In kind it is in vivo. Conditions: mean ± SD, scale 0-100 mm. The text has this:
The present inventions disclosed in this specification further include a method of treating pain and pain related conditions. This was established using a well controlled human clinical trial. The method of treating pain and pain related conditions by using a combination disclosed by this invention has been established in a long-term controlled clinical evaluation. A typical study determined the efficacy of tramadol and meloxicam as monotherapy and a combination of meloxicam and a slow release tramadol for the treatment of pain and pain related conditions
• Tramadol hydrochloride: Generic Tramadol Hydrochloride tablets 50 mg, • Meloxicam: Generic Meloxicam tablets 7.5 mg • Slow Release Tramadol Hydrochloride: a) Example 1, b) Ultram ER 100 mg
The administered dosage comprised either tramadol hydrochloride (100 mg) or meloxicam 7.5 mg or a combination of meloxicam (7.5 mg) and slow release tramadol hydrochloride (100 mg) selected from Treatments D or E or a combination of meloxicam 5 mg and a slow release tramadol 100 mg (Treatment F) was administered once a day to the patients in a long-term clinical trial.
140 patients were used in a clinical trial were suffering from Chronic non-cancer pain (CNCP), defined as pain for longer than 6 months, including neuropathic pain, osteoarthritis, rheumatoid arthritis, fibromyalgia, and back and musculoskeletal pain were included in the clinical trial.
Those patients with migraines, dental pain, abdominal pains (from chronic pancreatitis, kidney stones, etc.) and ischemic pain from vascular disease were excluded because they are usually not classified as CNCP. Patients with history of addiction (alcohol or drugs) were excluded from the trials
Randomization was performed with computer-generated random numbers in blocks of 10. Randomization codes of the monotherapy or combination therapy treatments were placed in sequentially numbered, opaque, sealed envelopes in the biopsy center. When a patient was recruited and consented, the next numbered envelope was opened by the operator, who had no knowledge of the randomization code before the treatment
Pain was assessed using a visual analogue scale (VAS) graded from 0-100 mm. Pain scoring was performed every three hours after drug administration for a total of 24 hours.
The patients were taught with a standard method by the physician how to use a VAS scoring from 0 to 100 mm to grade the intensity of pain experienced during the treatment. On that scale, the left endpoint, 0, was defined as no pain and the right endpoint 100, as the worst pain the patient could imagine. There were no further marks on the line. The intensity of pain was indicated by the distance in millimeters from the left end. Patients were asked to grade the pain intensity immediately after the administration of drugs and every three hour after for 24 hours by drawing a vertical line over each VAS line. The doctors who prescribed the medicines obtained all the VAS forms for that specific patient.
Data are expressed as means ±SD. Differences in VAS were analyzed with use of the unpaired Student t test and differences in pain score reductions between the two groups were analyzed with use of the Mann-Whitney U test for the median difference. Similar statistical tests were used for between group comparisons of other outcome variables as appropriate. A two tailed P value of less than. […] SAS software was used for the statistical analysis.
We considered that a clinically significant benefit of using meloxicam and slow release tramadol would be a reduction in the pain score (VAS) of at least 15% compared to the monotherapy with either tramadol hydrochloride or naproxen or meloxicam or placebo. Alternatively, the dose reduction of at least 15% of either NSAID or tramadol when used as combination over the monotherapy as significant benefit

`Cc1cnc(N/C(O)=C2/C(=O)c3ccccc3S(=O)(=O)N2C)s1` [Treatment B, 4-hydroxy-2-methyl-N-(5-methyl-2-thiazolyl)-2H-1,2-benzothiazine-3-carboxamide-1,1-dioxide]: the “Pain scored by VAS” value (VAS time 0 hours) is reported as 34 ± 19.1 mm; the “Pain scored by VAS” value (VAS time 3 hours) amounted to 18 ± 19.1 mm; the “Pain scored by VAS” value (VAS time 6 hours) stood at 14 ± 21.1 mm; the “Pain scored by VAS” value (VAS time 9 hours) is on record as 14 ± 20.3 mm; the “Pain scored by VAS” value (VAS time 12 hours) is 15 ± 18.6 mm; the “Pain scored by VAS” value (VAS time 15 hours) was found to be 17 ± 21.5 mm. Besides, the “Pain scored by VAS” value is listed as 19 ± 19.7 mm (VAS time 18 hours), 20 ± 18.3 mm (VAS time 21 hours) and 25 ± 20.9 mm (VAS time 24 hours).

As to `COc1cccc([C@@]2(O)CCCC[C@@H]2CN(C)C)c1` (racemic) [Treatment A, (±) cis-2-[(dimethylamino)methyl]-1-(3-methoxyphenyl)cyclo-hexanol hydrochloride], the “Pain scored by VAS” value runs as follows: (VAS time 0 hours) 30.3 ± 21.2 mm; (VAS time 3 hours) 22.3 ± 20.1 mm; (VAS time 6 hours) 18.3 ± 20.6 mm; (VAS time 9 hours) 15.3 ± 17.2 mm; (VAS time 12 hours) 12.3 ± 21.2 mm; (VAS time 15 hours) 14.3 ± 19.2 mm. Moreover, the “Pain scored by VAS” value reads like this: (VAS time 18 hours) 15.3 ± 21.3 mm; (VAS time 21 hours) 14.3 ± 19.2 mm; (VAS time 24 hours) 14.3 ± 19.2 mm.
